Reference: patent US20150246946A1, “PEPTIDES AND METHODS FOR TREATING CANCER” (AGENCY FOR SCIENCE, TECHNOLOGY AND RESEARCH, priority 2012, published 2015)
Blank lines part the entries; values can stand above or below the molecule they belong to. Bridges are numbered along the chain shown (N, C = ends). [ ]: non-standard residue; d: D form. R8 = C=CCCCCCC[C@@](C)(N)C(=O)O; S5 = C=CCCC[C@](C)(N)C(=O)O; FAM = carboxyfluorescein

Key:
HCT-116 p53−/− cells [1] = assay: Caspase-Glo 3/7 assay, HCT-116 p53−/−; type: cell-based; conditions: 24 hours
Description: (§1) Data was normalized to vehicle-treated controls.

[2] = test system: thymocytes from p53 wild-type mice; assay: cell viability in mouse thymocytes, p53 wild-type; type: cell-based; conditions: p53 wild-type vs p53 deficient mice, 24 hours, annexin V/PI
Procedure: Thymocytes were isolated from wild-type and p53^+/−mice (age 4-9 weeks) and kept in a PBS/FCS (2%) solution (ref). Cells were plated at a density of 1×10^6 per well in 24-well plates in medium [DMEM/Hepes (25 mM, pH 7.2), 5% FCS, penicillin/streptomycin, glutamine] and incubated at 37° C. with 2% C02. […] Cell were then analysed for viability using this procedure, cells were washed with cold PBS, and stained with FITC-labeled annexin V antibody (PharMingen) and PI (Sigma). The relative amounts of apoptotic cells were determined by binding of annexin V and subsequent fluorescence-activated cell sorter analysis. All values were normalized to the number of cells remaining viable in vehicle (1% DMSO) treated cultures derived from the same animal stained simultaneously. Data are representatives of n=4 independent experiments.

HCT-116 p53+/+ cells [3] = assay: cell viability (CellTiter-Glo), HCT-116 p53+/+; type: cell-based; conditions: 24 hours
Description: as §1

[4] = test system: p53 responsive LacZ reporter gene in T22 cell line; assay: T22 p53 β-galactosidase based reporter assay; type: cell-based, murine; conditions: for p53 transcriptional activity in T22 p53 reporter assay: 18 hours, DMEM with 10% FBS
Procedure: T22 cells, which were stably transfected with a p53 responsive […] reporter, were seeded into 96-well plate at a cell density of 8000 cells per well. […] Measurements were carried out using a Safire II multiplate reader (TECAN). Experiments were carried out independently twice.

Mdm2 (1-125) [5] = target: T1, Mdm2 (1-125) (Homo sapiens, UniProt Q00987); assay: competitive fluorescence polarization/anisotropy, apparent Kd against Mdm2; type: binding
T1 construct: Mdm2 (1-125) and Mdm4 (1-125) were ligated into the GST fusion expression vector pGEX-6P-1; GST (N, cleaved yes); made in house; host or cells: E. coli BL21 DE3
T1 sequence (Q00987 1-125): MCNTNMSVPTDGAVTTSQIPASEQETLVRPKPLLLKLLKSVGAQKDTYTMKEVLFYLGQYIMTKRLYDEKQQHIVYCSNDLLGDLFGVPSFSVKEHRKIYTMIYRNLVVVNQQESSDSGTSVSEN
Procedure: (§2) The cells expressing the GST fusion constructs were grown in LB medium at 37° C. to an OD600 of ˜0.6 and induction was started with 1 mM IPTG and carried out overnight at room temperature. Cells were harvested by centrifugation and the cell pellets were re-suspended in 50 mM Tris pH 8.0, 10% sucrose and were then sonicated. The sonicated sample was centrifuged for 60 mins at 17,000 g at 4° C. […] The column was then further washed by 6 volumes of wash buffer. Mdm2 and Mdm4 were then purified from the column by cleavage with Precission (GE Lifesciences) protease. 10 units of precission protease, in one column volume of PBS with 1 mM DTT buffer, were injected onto the column. The cleavage reaction was allowed to proceed overnight at 4° C. The cleaved protein was then eluted of the column with wash buffer. Protein fractions were analyzed with SDS page gel and concentrated using a Centricon (3.5 kDa MWCO) concentrator, Millipore. Mdm2 and Mdm4 protein samples were then dialyzed into a buffer solution containing 20 mM Bis-Tris, pH 6.5, 0.05M NaCl with 1 mM DTT and loaded onto a monoS column pre-equilibrated in buffer A (20 mM Bis-Tris, pH 6.5, 1 mM DTT). The column was then washed in 6 column volumes of buffer A and bound protein was eluted with a linear gradient of 1M NaCL over 25 column volumes. Protein fractions were analyzed with SDS page gel and concentrated using a Centricon (3.5 kDa MWCO) concentrator from Millipore.
(§3) Apparent Kd values were determined for a variety of molecules via competitive fluorescence anisotropy experiments. […] The competing molecules were then titrated against complex of the FAM labelled peptide and protein. Apparent Kd values were determined by fitting the experimental data to the equations shown below:
(§4) [L]st and [L]t denote labelled ligand and total unlabelled ligand input concentrations, respectively. Kd2 is the dissociation constant of the interaction between the unlabelled ligand and the protein. In all competitive types of experiments, it is assumed that [P]t>[L]st, otherwise considerable amounts of free labelled ligand would always be present and would interfere with measurements. […] The FAM-labelled peptide were dissolved in DMSO at 1 mM and diluted into experimental buffer. Readings were carried out with a Envision Multilabel Reader (PerkinElmer). […] All titrations were carried out in triplicate. Curve-fitting was carried out using Prism 4.0 (GraphPad).

SJSA-1 cell line = assay: caspase 3/7 activity in SJSA-1 cell line; conditions: SJSA-1 cells, titration
HCT-116 p53−/− cells [6] = assay: cell viability (CellTiter-Glo), HCT-116 p53−/−; type: cell-based; conditions: 24 hours
Description: as §1

HCT116 p53+/+ cells = assay: cell cycle analysis (propidium iodide flow cytometry); type: cell-based; conditions: 24 hours; for cell cycle distribution at high concentrations: high concentration (FIG. 5); for cell cycle distribution at low concentrations: low concentration (FIG. 4c)
Procedure: Three hundred fifty thousand cells were then seeded per well in 6-well plates containing incubated overnight. […] A 1% DMSO vehicle control treatment was also carried out. Cells were washed with PBS and then detached from the plate surface by trypsinisation. […] Cells were spun down and resuspended with PI-staining solution containing RNase A. Cells were analyzed using an LSR II (Becton Dickinson).

p53 null thymocytes = assay: cell viability in mouse thymocytes, p53 null; type: cell-based, mice; conditions: high doses, 24 hours, annexin V/PI
HCT-116 p53+/+ cells [7] = assay: HCT-116 Western blot analysis; type: cell-based; conditions: 6 hours, with or without fetal calf serum, FIG. 2d
Procedure: Cells were treated with various compounds/vehicle controls at the time points and concentrations indicated also in acoy's media with 10% FBS. Cells were rinsed with PBS and then harvested in 200 μl of 1× NuPAGE LDS sample buffer supplied by Invitrogen (NP0008). Samples were then sonicated, heated to 90° C. for 5 mins, sonicated twice for 10 s and centrifuged at 13, 000 rpm for 5 minutes. Protein concentrations were measured by BCA assay (Pierce). Western blots were then performed using antibodies against actin (AC-15, Sigma) as a loading control, p21 (118 mouse monoclonal), Mdm2 (4B2 mouse monoclonal) and p53 (DO-1 mouse monoclonal).

[8] = target: T2, interaction of p53 with Mdm2 in living BHK cells (Homo sapiens, UniProt Q00987); assay: F2H co-localization assay p53:Mdm2; type: cell-based; conditions: 0 to 50 μM
T2 construct: the prey is a fusion of either Mdm2 (7-134) or Mdm4 (1-129) with RFP; host or cells: transgenic BHK cells with lac operator repeats
T2 sequence (Q00987 7-134): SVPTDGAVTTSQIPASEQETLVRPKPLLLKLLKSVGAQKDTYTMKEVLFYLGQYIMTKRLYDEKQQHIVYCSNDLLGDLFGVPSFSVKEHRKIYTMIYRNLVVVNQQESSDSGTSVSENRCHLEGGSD

Mdm4 (1-125) [9] = target: T3, Mdm4 (1-125) (Homo sapiens, UniProt O15151); assay: competitive fluorescence polarization/anisotropy, apparent Kd against Mdm4; type: binding
T3 construct: Mdm4 (1-125) were ligated into the GST fusion expression vector pGEX-6P-1; GST (N, cleaved yes); made in house; host or cells: E. coli BL21 DE3
T3 sequence (O15151 1-125): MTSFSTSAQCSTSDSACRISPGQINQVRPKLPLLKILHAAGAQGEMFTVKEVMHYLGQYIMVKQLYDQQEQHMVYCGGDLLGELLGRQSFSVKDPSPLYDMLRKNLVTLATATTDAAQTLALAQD
Procedure: as §2, §3, §4

HCT-116 p53+/+ cells [10] = assay: Caspase-Glo 3/7 assay, HCT-116 p53+/+; type: cell-based; conditions: 24 hours
Description: as §1

[11] = target: T4, interaction of p53 with Mdm4 in living BHK cells (Homo sapiens, UniProt O15151); assay: F2H co-localization assay p53:Mdm4; type: cell-based; conditions: 0 to 50 μM
T4 construct: Mdm4 (1-129) with RFP; host or cells: transgenic BHK cells with lac operator repeats
T4 sequence (O15151 1-129): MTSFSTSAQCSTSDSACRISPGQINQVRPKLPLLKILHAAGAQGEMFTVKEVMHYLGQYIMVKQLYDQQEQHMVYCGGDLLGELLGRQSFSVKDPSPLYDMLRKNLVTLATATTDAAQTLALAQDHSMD

Mdm2 (1-125) [12] = target: T5, Mdm2 (1-125) (human, UniProt Q00987 1-125); assay: competitive fluorescence polarization
T5 construct: range 1-125; also called Hdm2
T5 sequence (Q00987 1-125 limits assumed): as the sequence (Q00987 1-125) above

Mdm4 (1-125) [13] = target: T6, Mdm4 (1-125) (human, UniProt O15151 1-125); assay: competitive fluorescence polarization
T6 construct: range 1-125; also called MDMX; Hdm4
T6 sequence (looked up): T3 sequence (O15151 1-125)

Mdm4 (1-125) [14] = target: T6, Mdm4 (1-125); assay: apparent Kd, competitive fluorescence polarization; displacement of FAM-…-NH2 from Mdm4 (1-125)
Mdm2 (1-125) [15] = target: T5, Mdm2 (1-125); assay: apparent Kd, competitive fluorescence polarization; displacement of FAM-…-NH2 from Mdm2 (1-125)
Mdm4 (1-125) [16] = target: T6, Mdm4 (1-125); assay: direct fluorescence anisotropy titration of Mdm4 (1-125) against 50 nM labelled peptide, 1:1 model

- preference between Mdm2 and Mdm4 in binding (Mdm2 (1-125) [5]; comparison of apparent Kds): preference for Mdm2 over Mdm4
- disruption of p53 interaction with Mdm2 (F2H) [8]: dissociate Mdm2 from p53
- Mdm4 Kd (Mdm4 (1-125) [9]; apparent Kd, competitive fluorescence polarization, Mdm4 75 nM, FAM peptide 50 nM): significantly attenuated
Molecule: CC(=O)N[C@H](C(=O)N[C@@H](CO)C(=O)N[C@@H](Cc1ccccc1)C(=O)N[C@]1(C)CCCCCCC=CCCC[C@@](C)(C(N)=O)NC(=O)[C@H](CC(C)C)NC(=O)[C@H](CC(C)C)NC(=O)[C@H](C)NC(=O)[C@H](Cc2c[nH]c3cc(Cl)ccc23)NC(=O)[C@H](Cc2ccc(O)cc2)NC(=O)[C@H](CCC(=O)O)NC1=O)[C@@H](C)O [sMTide-02A, Ac-^1TSFXEY(L-6-Cl)WALLX^11-NH2]
- caspase 3/7 activity (HCT-116 p53−/− cells [1]): negligible caspase 3/7 activity
- cell death in thymocytes [2]: induced cell death in a p53-dependent manner
- cell viability (HCT-116 p53+/+ cells [3]): no significant decrease in the viability
- p53 transcriptional activity in T22 p53 reporter assay [4]: much higher fold induction of p53 transcriptional activity than the unmodified sMTide-02
- induction of caspase 3/7 activity (SJSA-1 cell line): induced caspase 3/7 activity at substantially higher concentrations than nutlin
- cell viability (HCT-116 p53−/− cells [6]): no significant decrease in the viability
- cell cycle distribution at high concentrations (HCT116 p53+/+ cells): G2 arrest
- cell cycle distribution at low concentrations (HCT116 p53+/+ cells): G2 arrest
- apoptosis in p53 null thymocytes (p53 null thymocytes): to a certain extent
- effect of serum on activity (HCT-116 p53+/+ cells [7]): significantly improved potency in the absence of serum
- caspase 3/7 activity (HCT-116 p53+/+ cells [10]): negligible caspase 3/7 activity

- disruption of p53 interaction with Mdm4 (F2H) [11]: greater potency against Mdm4
- increase in Kd against Mdm2 in comparison to unstapled counterpart (Mdm2 (1-125) [5]; stapled vs unstapled peptide): negligible increase
- disruption of p53 interaction with Mdm2 (F2H) [8]: dissociate Mdm2 from p53
- Kd (Mdm4 (1-125) [9]): 45.7 ± 7.65 nM
- increase in Kd against Mdm4 in comparison to unstapled counterpart (Mdm4 (1-125) [9]; stapled vs unstapled peptide): 2 fold
Molecule: CC(=O)N[C@H](C(=O)N[C@@H](CO)C(=O)N[C@@H](Cc1ccccc1)C(=O)N[C@]1(C)CCCCCCC=CCCC[C@@](C)(C(N)=O)NC(=O)[C@H](CC(C)C)NC(=O)[C@H](CC(C)C)NC(=O)[C@H](C)NC(=O)[C@H](Cc2c[nH]c3ccccc23)NC(=O)[C@H](Cc2ccc(O)cc2)NC(=O)[C@H](CCC(=O)O)NC1=O)[C@@H](C)O [sMTide-02, Ac-^1TSFXEYWALLX^11-NH2]
- caspase 3/7 activity (HCT-116 p53−/− cells [1]): negligible caspase 3/7 activity
- cell death in thymocytes [2]: induced cell death in a p53-dependent manner
- cell viability (HCT-116 p53+/+ cells [3]): no significant decrease in the viability
- p53 transcriptional activity in T22 p53 reporter assay [4]: strongest p53 transcriptional response ever seen in this assay
- effect of PGP inhibitor PSC-883 on p53 response in the reporter assay ([4]; with 20 μM PSC-883 vs without): significantly improved the sensitivity of the p53 response
- induction of caspase 3/7 activity (SJSA-1 cell line): induced caspase 3/7 activity at substantially higher concentrations than nutlin
- cell viability (HCT-116 p53−/− cells [6]): no significant decrease in the viability
- cell cycle distribution at high concentrations (HCT116 p53+/+ cells): G2 arrest
- cell cycle distribution at low concentrations (HCT116 p53+/+ cells): G2 arrest
- apoptosis in p53 null thymocytes (p53 null thymocytes): did not
- effect of serum on activity (HCT-116 p53+/+ cells [7]): significantly improved potency in the absence of serum
- caspase 3/7 activity (HCT-116 p53+/+ cells [10]): negligible caspase 3/7 activity

- fold increase in Kd against its unstapled counterpart (MTide-01) (Mdm2 (1-125) [12]): ~2 fold
- fold increase in Kd against its unstapled counterpart (MTide-01) (Mdm4 (1-125) [13]): ~4 fold
- Kd (Mdm4 (1-125) [14]): 118 nM
- Kd (Mdm2 (1-125) [15]): 87 nM
B1: sMTide-01 (peptide)
peptide: Ac-TSF[R8]EYWNLL[S5]-NH2
modifications: staple 4-11
SMILES: CC(=O)N[C@H](C(=O)N[C@@H](CO)C(=O)N[C@@H](Cc1ccccc1)C(=O)N[C@]1(C)CCCCCCC=CCCC[C@@](C)(C(N)=O)NC(=O)[C@H](CC(C)C)NC(=O)[C@H](CC(C)C)NC(=O)[C@H](CC(N)=O)NC(=O)[C@H](Cc2c[nH]c3ccccc23)NC(=O)[C@H](Cc2ccc(O)cc2)NC(=O)[C@H](CCC(=O)O)NC1=O)[C@@H](C)O
notes: Stapled derivative of MTide-01; also called Ac-TSFXEYWNLLX-NH2

- Kd (Mdm4 (1-125) [16]): 4.2 nM
B2: carboxyfluorescein (FAM) labelled 12-1 peptide (FAM-RFMDYWEGL-NH2) (peptide)
peptide: {FAM}-RFMDYWEGL-NH2
notes: Labelled probe of the fluorescence anisotropy assays; also called FAM labeled probe
